A melting point compilation (Tetko et al.; mined from patent text by program, amines drawn as free bases though some values may be those of a salt)

melting point [°C] | Structure (SMILES)
162 | CCOCc1nc2c(N)nc(C)c(C)c2n1CCCNC(C)=O
45 to 47 | CCOC(=O)CCCCn1cnc2ccncc21
189 to 191 | CN(C)c1ccnc(CSc2c[nH]c3ccccc23)c1
173 to 175 | COc1cc(OC)nc(NC(=O)NS(=O)(=O)Oc2ccccc2-c2csnn2)n1
36 | COC(=O)c1cccc(Cl)c1N
119 to 120 | Cc1ccc(C2CCN(C(=O)CCC(=O)c3ccc4c(c3)CNCC4)CC2)cc1
58 to 61 | CCc1cc(C)cc(CC)c1C1C(=O)CC(CC(C)S(=O)CC)CC1=O (stereo unspecified)
177 to 178 | COC(=O)Nc1ccc(C(=O)OC)cc1
170 | Cc1nccn1CCN1CCC(Nc2nc3ccccc3n2Cc2ccc(F)cc2)CC1
125 to 128 | COc1ccc2c(c1)CCC1CCNC(=O)C(CCN3CCCCC3)=C21 (stereo unspecified)
58 to 60 | CCNC(=O)n1nc(Oc2c(F)cc(C(F)(F)F)cc2Cl)cc1C
158 to 159 | COc1ccc(-c2ccccc2NC(N)=S)cc1
86 | Cc1cccc(-c2n[nH]cc2-c2ccc(F)c(-c3ccc(N4CCN(C)CC4)nc3)c2)n1
166 to 168 | CC1(C)Cc2nc(C3CCCC3)c(C(=O)c3ccc(C(F)(F)F)cc3)c(-c3ccc(F)c(F)c3)c2C(O)C1 (stereo unspecified)
101 to 104 | CCCCCCCCN(C)C(N)=NC#N
112 to 113 | CCn1nc(OCCCc2ccc(OCCOC)cc2OCc2ccc(C(F)(F)F)cc2)cc1CCC(=O)O
115 to 121 | CCCn1cc(Cc2ccc(C(=O)NS(=O)(=O)c3ccccc3C)cc2OC)c2cc(CCNC(=O)N(C)C)ccc21
244 to 245 | CNS(=O)(=O)c1ccc2c(c1)S(=O)(=O)NC1CCCN21 (stereo unspecified)
125 | CSc1ccc(NC(=O)N(C)O)cc1C(F)(F)F
110 to 111 | COc1cccc(CN2CCN(C(=S)SC)CC2)c1OC
152 to 153 | COc1ccc(CSC(=S)N2C(CO)Cc3c([nH]c4ccccc34)C2C)cc1 (stereo unspecified)
136 to 137 | CC1(C)CC(S(=O)(=O)Cc2c(Cl)nn(C(F)F)c2C(F)(F)F)=NO1
136 to 137 | CC1(C(=O)c2ccc(C(=O)O)cc2)CC1
88 to 91 | COc1ccc(-c2ccc(Cl)cc2)cc1OC1CCCC1
108 to 110 | CCn1cc(C(=O)C(Cl)Cl)c(=O)c(-c2cccc(C(F)(F)F)c2)c1

melting point [°C] | Structure (SMILES)
282 to 284 | O=C1CCC2(CCC(=O)c3cc(Cl)ccc32)C(=O)N1 (stereo unspecified)
115 to 116 | O=C(c1ccccc1)c1ccc(O)c2ncccc12
115 to 117 | [N-]=[N+]=Nc1nc(-c2ccccc2)nc(-c2ccccc2)n1
214 to 215 | CCOCCCOc1ccc(-c2ccc3c(c2)C=C(C(=O)Nc2ccc(CN(C)C4CCOCC4)cc2)CCS3(=O)=O)cc1
240 | O=C(O)c1ccccc1Sc1ccc(Cl)cc1
69 to 73 | CCC1SCCCN1C(=S)Nc1cccc(Cl)c1 (stereo unspecified)
157 to 158 | CCOC(=O)Cc1ccc(-c2nc(COc3ccc(COc4nn(-c5ccccc5)cc4C=O)cc3OC)c(C)o2)cc1
243 to 245 | O=c1c2c(c3cccnc3n1-c1cccc(Cl)c1)OC(CO)C2 (stereo unspecified)
134 to 138 | CCC(C)(NC(=O)c1cc(Cl)c(N)c(Cl)c1)C(=O)CCl (stereo unspecified)
229 to 230 | Cc1nccn1Cc1ccc(NC(=O)C(F)(F)F)cc1C(F)(F)F
151 to 153 | Brc1ccc2nc(-c3coc4ccccc34)cn2c1
191 to 193 | CSc1ccccc1C1C(=O)c2ccccc2C1=O
105 to 107 | O=C(NCC12CC3CC(CC(C3)C1)C2)c1cc(CCCNCCCO)cnc1Cl
124 | COc1ccc2c(c1)C=CC(C#N)N2C(=O)c1ccccc1 (stereo unspecified)
122 to 127 | COc1cccc2c(CCCCN(C3CCC3)C3COc4c(F)ccc(C(N)=O)c4C3)coc12 (stereo unspecified)
219 to 220 | O=C1C=CC(O)(c2ccc(OCCCCl)cc2)O1 (stereo unspecified)
121 to 122 | O=C(N[C@H](Cc1ccc(C(F)(F)F)cc1)[C@@H](O)c1ccc(F)cc1)c1cccc2c1OCC2 (racemic)
118 to 124 | O=S=c1cc(-c2ccc(O)cc2)ss1
138 to 141 | CC(C(=O)NN)c1cn[nH]c1-c1ccc(-c2ccccc2)cc1O (stereo unspecified)
101 to 102 | CC(=O)c1cccc(Oc2ncccc2OCCCc2ccncc2O)c1
137 to 142 | COc1ccc(CBr)cc1S(=O)(=O)NC(C)(C)C
167 to 168 | COc1nc2cc([N+](=O)[O-])cc(C)c2nc1OC
55 to 58 | O=S(=O)(NS(=O)(=O)OCC(F)(F)F)OCC(F)(F)F
185 to 186 | c1ccc(CSc2nc3ccccc3[nH]2)cc1
182 to 184 | CCC1(c2cccs2)OCC(=O)Nc2ccc(-c3sc(C#N)cc3C)cc21 (stereo unspecified)

melting point [°C] | Structure (SMILES)
133 to 134 | CNC(=O)c1cc2c(Oc3ccc(COCCOC)cc3)cncc2s1
182 | O=C(/C=C/c1ccc(C(=O)O)cc1)NOC1CCCCO1 (stereo unspecified)
170 to 171 | COc1cn(-c2cccc(C(F)(F)F)c2)nc(C(=O)N(C)OC)c1=O
98 to 99 | O=C(O)CCc1ccccc1OCCCCCOc1ccc2c(c1CCCc1ccccc1)OCCC2=O
105 to 107 | C#CCN1C(=O)COc2cc(F)c([N+](=O)[O-])cc21
155 to 156 | CSc1nc(NCC=C(C)C)c2ccnc-2[nH]1
100 | COc1cc2c(cc1OC)CN(CCCOc1ccc(N)cc1)CC2
288 | N#Cc1ccc(C=Cc2ccc(C#N)cc2)cc1
95 to 97 | CCOC(=O)c1sc(=O)[nH]c1C(F)(F)C(F)(F)F
146 to 149 | CCCCCCC(Oc1ccc(NC(=O)NC(=O)c2c(Cl)cccc2Cl)cc1)c1ccccc1 (stereo unspecified)
205 to 209 | Cc1ccc(Sc2c(Cl)c(Cl)c(C(O)=NCCO)c(C(=O)O)c2Cl)cc1
168 to 170 | COc1cccc(-c2c(NC(=O)Nc3c(C(C)C)cccc3C(C)C)c(=O)n(CCOc3ccccc3)c3ncccc23)c1
238 to 239 | Cc1c(N(C)C)c(F)cc2c(=O)[nH]c(=O)n(C3CC3)c12
256 to 259 | O=C1NC(=O)c2c1c(-c1ccccc1Cl)cc1oc3cc(CCCCO)c(O)cc3c21
84 to 85 | COC(=O)c1ccc2sc(C)c(Br)c2c1
253 | COc1ccc(S(=O)(=O)N2C(=O)C(NC(C)=O)(c3ccccc3)c3cc(Cl)ccc32)c(OC)c1 (stereo unspecified)
191 to 193 | COc1cc(C(C)C#Cc2c(C)nc(N)nc2N)cc(OC)c1OC (stereo unspecified)
> 300 | CCCCn1c(=O)c2nc(-c3ccc(/C=C/C(=O)O)cc3)[nH]c2n(C)c1=O
73 to 74.5 | O=C(c1ccccc1)c1cc(Cl)ccc1OCCCl
82 to 83 | CCOC(=O)/C=C/c1cc(-c2ccc(C(F)(F)F)cc2)oc1CC
154 to 156 | CC[C@@H](c1ccccc1)N(Cc1ccc(C(=O)O)cc1)S(=O)(=O)c1ccc(Cl)cc1
157 to 159 | CCc1cccc(C)c1CNc1cc(Cl)nc2c1nc(C)n2C
97 to 98.5 | CCN(c1nc(C)cc(C(=O)c2nccs2)n1)c1ccc(C(C)C)cc1Br
215 to 216 | O=C(Nc1ccn(C(=O)c2ccccc2)c(=O)n1)c1ccccc1
222 | Cc1c(C=CC(=O)O)cccc1[N+](=O)[O-]

melting point [°C] | Structure (SMILES)
245 to 249 | O=C(Nc1ccccc1)Nc1nc2ccc(OC(=O)c3ccccc3)cc2s1
183 to 186 | CC1CCc2cc(F)cc3c(=O)c(C(=O)Cl)cn1c23 (stereo unspecified)
175 to 176 | Cc1cccc(CCC(=O)c2ccccc2)c1NC(=O)CC1c2ccccc2Oc2ccccc21
215 to 217 | CC1(C)Oc2ccc(C#N)cc2[C@@H](NC(=O)Nc2ccc3c(c2)CNC3)[C@@H]1O
122 to 125 | CCCCOCCOc1ccc(-c2ccc3c(c2)C=C(C(=O)Nc2ccc(C(O)c4ccccn4)c(C)c2)CCN3C(=O)C(F)(F)F)cc1 (stereo unspecified)
135 to 137 | O=[N+]([O-])c1ccc(C(O)CSCc2ccncc2)cc1 (stereo unspecified)
139 to 141 | ON=Cc1ccc(-c2ccc(Cl)cc2)o1
256 to 258 | Oc1cc(CN/C=C2\CN=Cc3ccc(Br)cc32)ccc1OC(F)F
146 to 148 | Cc1ncsc1C(C)(O)c1cccs1 (stereo unspecified)
180 to 181 | COc1ccc(S(=O)(=O)c2ccc3cc(Br)ccc3c2)cc1
246 to 247 | COc1ccc2c(c1)C(=O)C(=O)N2c1ccc(F)cc1
197 | O=C(N[C@H]1CC[C@H](CCN2CCC(c3cccc4c3CCO4)CC2)CC1)C1CCC1
144 to 146 | CCOc1nc2ccccc2nc1N(CC)C(=O)N1CCN(c2cc(OC)cc(OC)c2)CC1
181 to 182 | CCOCc1nc2c(N)nc3cc(OCc4ccc(OC)cc4)ccc3c2n1CC(C)C
210 | COc1cc2c(c(OC)c1OC)-c1cc(I)c(O)cc1[C@@H](NC(C)=O)CC2
263 to 264 | CCNC(=O)Nc1cc(-c2c(-c3ccc(F)c(C)c3)nc3ccc(NC)nn23)ccn1
136 to 138 | N=C(NCC1(c2ccccc2)CC1)NN=Cc1c(Cl)cccc1Cl
164 to 170 | Nc1nc(N)nc(-c2cccc(-n3cccc3)c2)n1
168 to 171 | CCOc1cnc(C(C)(C)OC(=O)Nc2ccc(-c3ncn(-c4ccc(OC(F)(F)F)cc4)n3)cc2)nc1
135 to 137 | COC(=O)C#CC1CCC2C3CCC4CC(O)CCC4(C)C3CCC12C (stereo unspecified)
166 to 167 | CCOC(=O)COc1c(F)cc(S(=O)(=O)CCNS(=O)(=O)c2ccc(Cl)cc2)cc1F
234 to 236 | Fc1ccc(-c2nc[nH]c2-c2ccc(F)cc2)cc1
310 to 311 | CCOC(=O)c1cc2c(cn1)[nH]c1ccc(S(=O)(=O)N(C)C)cc12
280 to 283 | O=c1[nH]ncc2cc(Br)ccc12

Structure (SMILES) | melting point [°C]
O=C(O)CCCCCSC1c2ccccc2COc2ccc(OCc3ccc4ccc(Cl)cc4n3)cc21 (stereo unspecified) | 160 to 166
CCP(=S)(CC)OC(=O)/C=N\OCc1csc(N)n1 | 87 to 88
